Results on two compounds are retold here after patent US7449315B2, “Bifunctional energy-reversible acyl-compositions” (Cryolife, Inc., priority 2002, dated 2008).

The target in one data set is T1, Human tPA (Activase) (Homo sapiens, UniProt P00750).
T1 construct: purchased Genentech Inc. Lot # E9034A
In words: Inhibition and light reactivation of tPA by Rz-NH-CINN-AP inhibitors, S-2288 chromogenic assay. The format is biochemical. The following applies: for Inhibition after 16 hrs incubation (%): ambient temperature, dark; for Light Reactivation (%): after blue light. The method, then:
(§1) R is -tBOC, —H2^+, or mPEG5000. Human thrombin was modified with R—NH-CINN-AP inhibitors as follows: Thrombin (600 units; ˜3.5 nmol) in 50 mM sodium citrate buffer, 3 mM CaCl2, 7% kollidon, pH 7.0, was reacted with 3.5-35 nmol of the R—N-CINN-AP inhibitor for 12-18 hours at ambient temperature in the dark. Thrombin activities were measured under red light (“dark”) and after exposure to 10 seconds of blue light from a dental light and were assayed using S-2238 (diaPharma) at 30° C. Percentage inhibition was calculated as 100—dark activity. Dark activity was calculated as [activitydark÷activitycontrol]×100. Light reactivation was calculated as activitylight÷activtycontrol. The following are typical results.
R2 is -tBOC, —-H2^+, or mPEG5000. The procedures of Examnple 4 was repeated except that Human tPA (Activase, Genentech Inc. Lot # E9034A) was modified with Rz—NH-CINN-AP inhibitors in place of thrombin. The reactions were carried out as follows: tPA (0.83 nmol) in 10 mM tris-HCl, 130 mM NaCl, pH 7.4 was reacted with 0.8 3-8.3 nmoles of the R—NH CINN-AP inhibitors for 12-18 hours at ambient temperature in the dark. Activities were calculated as for Example 4, using S-2288 (diaPharna).

For another data set, the target named is Human thrombin (Homo sapiens, UniProt P00734). Nature of the data set: Inhibition and light reactivation of thrombin by R-NH-CINN-AP inhibitors, S-2238 chromogenic assay. The format is biochemical. The following applies: for Inhibition after 16 Hrs Incubation (%): ambient temperature, dark; for Light Reactivation (%): after 10 seconds of blue light, activity light/activity control. The protocol: as §1

The nature of data set [1]: Solubility in aqueous solution after removal of t-BOC. The data set is classed as physicochemical. The following applies: neutralized to pH 7.0. The method, then: 3-[2-hydroxy-4-(ethyl)(2-tert-butyloxycarbamidoethyl)amino]phenyl-2-methylpropenoic acid, 4-aminoiminophenyl ester, HCl salt (15; 12 mg, 25 μmmol) was suspended in 1.2 ml of 3N HCl and mixed by inversion for 3 hours at ambient temperature to release the t-BOC group and generate 3-[2-hydroxy-4-(ethyl) aminoethyl)amino]phenyl-2-methylpropenoic acid, 4-aminoiminophenyl ester, HCl salt (16; N-CINN-AP). After 3 hours, the reaction was neutralized with 3N NaOH to give a final pH of 7.0.

T1 sequence (P00750 36-562): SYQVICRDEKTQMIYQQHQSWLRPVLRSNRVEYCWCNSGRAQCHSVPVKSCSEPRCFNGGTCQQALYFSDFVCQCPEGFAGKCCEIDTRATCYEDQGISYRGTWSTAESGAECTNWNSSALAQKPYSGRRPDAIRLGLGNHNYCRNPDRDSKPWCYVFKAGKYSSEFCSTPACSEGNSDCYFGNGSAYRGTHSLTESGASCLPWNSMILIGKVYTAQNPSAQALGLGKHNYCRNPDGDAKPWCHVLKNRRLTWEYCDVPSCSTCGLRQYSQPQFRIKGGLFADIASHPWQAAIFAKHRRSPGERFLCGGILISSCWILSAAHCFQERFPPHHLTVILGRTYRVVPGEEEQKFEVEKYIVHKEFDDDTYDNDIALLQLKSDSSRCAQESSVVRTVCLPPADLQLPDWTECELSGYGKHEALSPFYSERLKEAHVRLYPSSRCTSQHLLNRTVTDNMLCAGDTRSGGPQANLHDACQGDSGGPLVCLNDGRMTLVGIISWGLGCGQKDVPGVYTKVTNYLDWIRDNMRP

Turning to `CCN(CCNC(=O)OC(C)(C)C)c1ccc(C=C(C)C(=O)Oc2ccc(C(=N)N)cc2)c(O)c1.Cl` [#15, 3-[2-hydroxy-4-(ethyl)(2-tert-butyloxycarbamidoethyl)amino]-phenyl-2-methylpropenoic acid, 4-aminoiminophenyl ester, HCl salt], the “Inhibition after 16 hrs incubation (%)” value at Human tPA (Activase) (inhibitor excess 5×) and on Human tPA (Activase) (inhibitor excess 10×) was 95% each time. Also, the “Light Reactivation (%)” value was 87% on Human tPA (Activase) (inhibitor excess 10×) and 72% on Human thrombin (inhibitor excess 10×). For the same compound, the “Inhibition after 16 Hrs Incubation (%)” value at Human thrombin (inhibitor excess 1×) is 94%; at Human thrombin (inhibitor excess 5×), 98%; on Human thrombin (inhibitor excess 10×), 97%.

Regarding `CCN(CCN)c1ccc(C=C(C)C(=O)Oc2ccc(C(=N)N)cc2)c(O)c1.Cl` [#16], the “tPA inhibition (in words)” value on Human tPA (Activase) (Table 2) is “less effective inhibitor at lower molar ratios”. In addition, the “Inhibition after 16 hrs incubation (%)” value is 78% on Human tPA (Activase) (inhibitor excess 5×) and 88% on Human tPA (Activase) (inhibitor excess 10×). The “Light Reactivation (%)” value on Human tPA (Activase) (inhibitor excess 10×) came out at 78%; at Human thrombin (inhibitor excess 10×) it was 64%. The “Solubility (in words)” value in data set [1] is reported as “soluble in aqueous solution”. Also, the “Inhibition after 16 Hrs Incubation (%)” value on Human thrombin (inhibitor excess 1×) is 21%; on Human thrombin (inhibitor excess 5×) it was 70%; at Human thrombin (inhibitor excess 10×), 96%. Further, the “Thrombin inhibition (in words)” value on Human thrombin (summary of Table 1) is “less effective inhibitor at lower molar ratios”.
